Results from ChEMBL document CHEMBL1201862, “PubChem BioAssay data set” (2004).
Values belong to the compound of their own block, whether it stands above or below them. Calls of active or inactive are those of the source.

Experiments:
cells = type: functional, cell-based; details: HEK-CNG
Cytochrome P450 2D6 = Cytochrome P450 2D6 (Homo sapiens, UniProt P10635);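 note: CYP2D6 member of a cytochrome P450 panel assay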
Cytochrome P450 2C9 = Cytochrome P450 2C9 (Homo sapiens, UniProt P11712)
Galanin receptor type 3 = Galanin receptor type 3 (Homo sapiens, UniProt O60755); test: Fluorescence-based cell-based primary high throughput dose response assay to identify antagonists of the Galanin Receptor 3 (GalR3).; type: functional
Kallikrein-7 = Kallikrein-7 (Homo sapiens, UniProt P49862); test: Fluorescence Intensity-based biochemical primary high throughput dose response assay to identify activators of kallikrein-7 (K7) zymogen.
[1] = biological target: T1, Sentrin-specific protease 8 (Homo sapiens, UniProt Q96LD8); type: functional
T1 sequence (Q96LD8 whole entry): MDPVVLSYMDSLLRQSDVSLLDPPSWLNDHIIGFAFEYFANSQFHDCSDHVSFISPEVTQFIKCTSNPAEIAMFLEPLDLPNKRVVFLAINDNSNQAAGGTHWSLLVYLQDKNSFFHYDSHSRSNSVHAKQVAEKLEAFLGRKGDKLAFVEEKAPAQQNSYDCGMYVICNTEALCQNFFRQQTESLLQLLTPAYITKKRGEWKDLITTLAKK

[2] = biological target: T1, Sentrin-specific protease 8; type: functional; remark: listed apart in the source
fMet-Leu-Phe receptor = fMet-Leu-Phe receptor (Homo sapiens, UniProt P21462); test: FPR ligands, dose response (AID 519); type: functional
Steroidogenic factor 1 = Steroidogenic factor 1 (Homo sapiens, UniProt Q13285); test: Counterscreen for inverse agonists of the liver receptor homolog-1 (LRH-1; NR5A2): Luminescence-based cell-based high throughput dose response assay to identify inverse agonists of the Steroidogenic Factor 1 Nuclear Receptor (SF1; NR5A1).; type: functional
[3] = StAR promoter reporter inhibition counter-screen, dose response, counter-screen for LRH-1 inverse agonist project, cell-based, luminescence, luciferase reporter (AID 651969); type: functional
[4] = biological target: Nuclear receptor subfamily 5 group A member 2 (Homo sapiens, UniProt O00482); type: functional, cell-based;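 note: HEK293T cells transfected with LRH-1 and a StAR promoter luciferase reporter; potency for inhibitors that lower LRH-1 driven reporter light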
[5] = HEK293T cell cytotoxicity, dose response, cytotoxicity control for HIV Vif inhibitor project, cherry-picks (AID 652208); type: functional, cell-based
[6] = cytotoxicity in HEK-293T cells, dose response, cytotoxicity control for TCR NF-kB inhibitor project, luminescence, T-cell screen hits (AID 489026); type: functional, cell-based;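 note: cells exposed to compound about 14 hours before the viability readout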
[7] = biological target: COUP transcription factor 2 (Homo sapiens, UniProt P24468); test: Luminescence-based cell-based high throughput dose response assay to identify inhibitors of COUP-TFII (NR2F2).; type: functional;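 note: HEK293 cells transiently cotransfected with COUP-TFII expression vector and reporter; luciferase reporter luminescence driven by COUP-TFII from the pX2-168 reporter plasmid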
INS1 = test: beta cell apoptosis inhibitors, cytokine rescue, dose response, luminescence, retest (AID 449756); type: functional, cell-based; details: Rattus norvegicus;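 note: cell death triggered by IL-1 beta plus TNF-alpha plus IFN-gamma mixture; protective hits raise ATP signal compared with cytokine alone wells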

Sequence of fMet-Leu-Phe receptor (P21462 whole entry): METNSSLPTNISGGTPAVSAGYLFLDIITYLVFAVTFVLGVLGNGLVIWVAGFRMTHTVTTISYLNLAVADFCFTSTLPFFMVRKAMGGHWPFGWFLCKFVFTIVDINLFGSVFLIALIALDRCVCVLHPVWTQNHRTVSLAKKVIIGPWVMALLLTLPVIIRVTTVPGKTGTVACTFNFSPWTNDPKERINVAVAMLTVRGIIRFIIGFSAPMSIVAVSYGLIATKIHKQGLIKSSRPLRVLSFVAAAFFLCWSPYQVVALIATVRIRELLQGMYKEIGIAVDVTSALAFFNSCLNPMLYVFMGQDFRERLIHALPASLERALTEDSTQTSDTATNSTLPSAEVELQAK
Sequence of Galanin receptor type 3 (O60755 whole entry): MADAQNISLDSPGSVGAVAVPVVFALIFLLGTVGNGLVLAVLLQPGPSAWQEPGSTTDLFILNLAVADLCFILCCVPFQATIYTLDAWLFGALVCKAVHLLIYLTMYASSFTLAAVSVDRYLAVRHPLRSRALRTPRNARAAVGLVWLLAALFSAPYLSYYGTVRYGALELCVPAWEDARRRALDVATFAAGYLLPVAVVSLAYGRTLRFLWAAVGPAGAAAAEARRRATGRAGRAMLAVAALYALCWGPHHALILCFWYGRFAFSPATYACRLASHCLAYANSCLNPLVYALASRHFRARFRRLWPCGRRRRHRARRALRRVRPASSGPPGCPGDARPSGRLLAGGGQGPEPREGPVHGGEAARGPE
Sequence of Kallikrein-7 (P49862 whole entry): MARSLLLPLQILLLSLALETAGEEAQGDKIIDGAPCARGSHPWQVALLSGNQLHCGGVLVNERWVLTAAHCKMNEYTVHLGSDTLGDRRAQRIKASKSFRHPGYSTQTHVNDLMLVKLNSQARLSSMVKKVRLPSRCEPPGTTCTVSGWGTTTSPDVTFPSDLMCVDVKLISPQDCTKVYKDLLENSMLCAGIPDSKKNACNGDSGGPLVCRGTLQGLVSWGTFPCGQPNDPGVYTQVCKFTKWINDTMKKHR
Sequence of Cytochrome P450 2D6 (P10635 whole entry): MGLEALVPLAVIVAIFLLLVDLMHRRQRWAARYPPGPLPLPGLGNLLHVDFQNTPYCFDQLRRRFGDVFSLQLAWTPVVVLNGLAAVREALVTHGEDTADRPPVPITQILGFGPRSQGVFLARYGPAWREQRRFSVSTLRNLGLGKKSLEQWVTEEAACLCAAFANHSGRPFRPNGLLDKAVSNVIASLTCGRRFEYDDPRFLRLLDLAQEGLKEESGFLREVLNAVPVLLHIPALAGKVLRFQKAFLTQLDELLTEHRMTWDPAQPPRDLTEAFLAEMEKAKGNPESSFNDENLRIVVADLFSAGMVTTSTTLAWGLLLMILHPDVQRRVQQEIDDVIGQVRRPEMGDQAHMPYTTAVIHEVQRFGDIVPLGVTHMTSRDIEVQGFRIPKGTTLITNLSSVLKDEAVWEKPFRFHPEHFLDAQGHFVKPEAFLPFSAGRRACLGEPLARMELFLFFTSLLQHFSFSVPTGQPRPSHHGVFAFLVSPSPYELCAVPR
Sequence of COUP transcription factor 2 (P24468 whole entry): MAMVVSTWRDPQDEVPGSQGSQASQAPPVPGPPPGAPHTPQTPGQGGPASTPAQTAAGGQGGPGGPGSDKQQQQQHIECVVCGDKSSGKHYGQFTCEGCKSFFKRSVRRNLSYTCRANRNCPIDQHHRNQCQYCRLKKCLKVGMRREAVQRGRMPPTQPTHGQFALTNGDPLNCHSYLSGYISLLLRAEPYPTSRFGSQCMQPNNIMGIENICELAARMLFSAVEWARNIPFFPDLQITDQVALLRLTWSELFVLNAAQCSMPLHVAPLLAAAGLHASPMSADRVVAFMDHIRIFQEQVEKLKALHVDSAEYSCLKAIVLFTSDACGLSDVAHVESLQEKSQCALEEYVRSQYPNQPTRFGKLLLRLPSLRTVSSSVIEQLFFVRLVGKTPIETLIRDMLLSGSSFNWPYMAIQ
Sequence of Nuclear receptor subfamily 5 group A member 2 (O00482 whole entry): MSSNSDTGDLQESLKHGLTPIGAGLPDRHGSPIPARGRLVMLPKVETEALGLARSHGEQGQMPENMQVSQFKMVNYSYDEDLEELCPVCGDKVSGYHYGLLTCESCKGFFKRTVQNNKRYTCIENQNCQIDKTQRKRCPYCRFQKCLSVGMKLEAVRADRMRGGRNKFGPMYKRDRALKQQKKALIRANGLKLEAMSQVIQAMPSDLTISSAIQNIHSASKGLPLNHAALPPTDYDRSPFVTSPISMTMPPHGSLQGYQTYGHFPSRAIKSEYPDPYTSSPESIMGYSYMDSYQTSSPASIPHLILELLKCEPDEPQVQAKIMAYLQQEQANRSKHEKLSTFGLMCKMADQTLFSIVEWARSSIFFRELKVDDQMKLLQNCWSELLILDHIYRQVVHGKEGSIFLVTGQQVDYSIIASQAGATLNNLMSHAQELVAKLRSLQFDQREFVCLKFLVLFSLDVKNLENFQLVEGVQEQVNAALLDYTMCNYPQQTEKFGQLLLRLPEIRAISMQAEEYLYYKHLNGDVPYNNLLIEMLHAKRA
Sequence of Steroidogenic factor 1 (Q13285 whole entry): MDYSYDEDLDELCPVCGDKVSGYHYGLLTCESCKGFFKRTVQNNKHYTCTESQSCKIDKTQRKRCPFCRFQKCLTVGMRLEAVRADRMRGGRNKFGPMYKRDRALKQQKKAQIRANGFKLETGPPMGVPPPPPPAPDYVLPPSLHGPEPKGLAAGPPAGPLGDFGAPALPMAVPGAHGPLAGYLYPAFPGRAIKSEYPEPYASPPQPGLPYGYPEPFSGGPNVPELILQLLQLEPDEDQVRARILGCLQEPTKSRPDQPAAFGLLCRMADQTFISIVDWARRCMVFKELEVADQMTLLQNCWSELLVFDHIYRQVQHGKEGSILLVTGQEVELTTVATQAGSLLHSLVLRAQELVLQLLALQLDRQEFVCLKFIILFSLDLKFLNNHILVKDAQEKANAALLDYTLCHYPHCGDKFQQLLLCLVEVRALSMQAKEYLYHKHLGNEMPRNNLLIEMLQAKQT
Sequence of Cytochrome P450 2C9 (P11712 whole entry): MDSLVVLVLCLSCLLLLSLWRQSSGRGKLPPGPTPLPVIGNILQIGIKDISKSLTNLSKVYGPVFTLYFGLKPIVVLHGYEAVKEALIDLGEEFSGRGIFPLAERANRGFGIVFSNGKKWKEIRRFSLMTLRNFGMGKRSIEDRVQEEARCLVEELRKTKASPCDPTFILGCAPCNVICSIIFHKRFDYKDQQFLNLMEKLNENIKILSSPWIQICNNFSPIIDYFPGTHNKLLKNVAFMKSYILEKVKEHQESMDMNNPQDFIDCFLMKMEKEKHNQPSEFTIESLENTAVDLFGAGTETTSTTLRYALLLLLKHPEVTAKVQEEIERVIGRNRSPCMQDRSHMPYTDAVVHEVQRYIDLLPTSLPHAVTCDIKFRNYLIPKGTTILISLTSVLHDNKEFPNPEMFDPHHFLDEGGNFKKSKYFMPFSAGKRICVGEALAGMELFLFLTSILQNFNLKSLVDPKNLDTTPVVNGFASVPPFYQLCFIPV

Structure (SMILES): Cc1nc2sc(C#N)c(N)c2c2c1CCCC2
EC50 (cells): > 29.9 µM (inactive)
AC50 (Cytochrome P450 2D6): 0.398 µM (inconclusive)
AC50 (Cytochrome P450 2C9): inconclusive
IC50 (Galanin receptor type 3): > 29.9 µM (inactive)

EC50 (Kallikrein-7): > 69.5 µM (inactive)
Structure (SMILES): O=C(NCCCN1CCCC1=O)c1cc2nc(-c3ccco3)cc(C(F)(F)F)n2n1

Structure (SMILES): O=C(COC(=O)c1cc(S(=O)(=O)N2CCc3ccccc3C2)ccc1Cl)NCc1ccco1
IC50 [1]: > 100 µM (inactive)
IC50 [2]: 12.4 µM (active)

Ki (fMet-Leu-Phe receptor): > 66.7 µM (inactive)
Structure (SMILES): COc1ccc(-c2nc(N3CCCC3)[nH]c(=O)c2C#N)cc1

Structure (SMILES): CN(C)S(=O)(=O)c1cccc(C(=O)OCC(=O)Nc2ccc3c(c2)OCCO3)c1
IC50 (Steroidogenic factor 1): 3.18 µM (active)
IC50 [3]: 35.9 µM (inactive)
IC50 [4]: 90.5 µM (inactive)

Ki (fMet-Leu-Phe receptor): > 66.7 µM (inactive)
Structure (SMILES): Cc1cc(NC(=O)CSc2nnc(Cn3c(=O)sc4ccccc43)n2-c2ccccc2C)no1

Structure (SMILES): COC(=O)c1ccc2c(=O)n(Cc3ccco3)c(SCC(=O)Nc3cc(C)on3)nc2c1
AC50 [5]: 35.7 µM (active)

Structure (SMILES): O=C(CSc1nnc(Cn2nnc3ccccc32)o1)N(Cc1ccc(F)cc1)c1ccccc1
IC50 [6]: > 80 µM (inactive)
EC50 (cells): > 29.9 µM (inactive)
IC50 [7]: 4.87 µM (active)
AC50 (INS1): 4.43 µM (active)
IC50 (Galanin receptor type 3): 1.24 µM (active)
